Laboratory results: patent US20170190671A1, “BIS(ARYL)CATECHOL DERIVATIVES AS HERBICIDES” (E I DU PONT DE NEMOURS AND COMPANY, priority 2014, published 2017)

Assays:
[1] = test system: sedge, umbrella (small-flower umbrella sedge, Cyperus difformis); assay: Test B flooded paddy; type: in vivo; conditions: Cyperus difformis, 336 h; 250 g ai/ha, Flood, 13 to 15 days, scale 0 (no effect) to 100 (complete control); read-out: Plant response rating, Sedge, Umbrella
How it was run: (§1)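 Compound was added to standing water 3 cm above soil, flood maintained, and plants held in a greenhouse before visual scoring against controls at 13 to 15 days.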

[2] = test system: ducksalad (Heteranthera limosa); assay: Test B flooded paddy; type: in vivo; conditions: Heteranthera limosa, 336 h; 250 g ai/ha, Flood, 13 to 15 days, scale 0 (no effect) to 100 (complete control); read-out: Plant response rating, Ducksalad
How it was run: as §1

[3] = test system: barnyardgrass (Echinochloa crus-galli); assay: Test B flooded paddy; type: in vivo; conditions: Echinochloa crus-galli, 336 h; 250 g ai/ha, Flood, 13 to 15 days, scale 0 (no effect) to 100 (complete control); read-out: Plant response rating, Barnyardgrass
How it was run: as §1

rice (Oryza sativa) = assay: Test B flooded paddy; type: in vivo; conditions: Oryza sativa, 336 h; 250 g ai/ha, Flood, 13 to 15 days, scale 0 (no effect) to 100 (complete control); read-out: Plant response rating, Rice
How it was run: as §1

[4] = test system: Italian ryegrass (Lolium multiflorum); assay: Test A preemergence; type: in vivo; conditions: Lolium multiflorum, pre-emergence, 240 h, 1000 g ai/ha, 0 to 100 scale, read-out: Plant response rating, Ryegrass, Italian
How it was run: (§2)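 Injury scores run from 0, no effect, to 100, complete control, judged by eye against untreated plants roughly 10 days after treatment. Chemicals carried a surfactant in a non-phytotoxic solvent and went onto loam–sand soil preemergence or onto one- to two-leaf seedlings postemergence.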

[5] = test system: pigweed (Amaranthus retroflexus); assay: Test A preemergence; type: in vivo; conditions: Amaranthus retroflexus, pre-emergence, 240 h, 1000 g ai/ha, 0 to 100 scale, read-out: Plant response rating, Pigweed
How it was run: as §2

[6] = test system: barnyardgrass (Echinochloa crus-galli); assay: Test A preemergence; type: in vivo; conditions: Echinochloa crus-galli, pre-emergence, 240 h, 1000 g ai/ha, 0 to 100 scale, read-out: Plant response rating, Barnyardgrass
How it was run: as §2

[7] = test system: ragweed (common ragweed, Ambrosia elatior); assay: Test A preemergence; type: in vivo; conditions: Ambrosia artemisiifolia, pre-emergence, 240 h, 1000 g ai/ha, 0 to 100 scale, read-out: Plant response rating, Ragweed
How it was run: as §2

kochia (Kochia scoparia) [8] = assay: Test A preemergence; type: in vivo; conditions: Bassia scoparia, pre-emergence, 240 h, 1000 g ai/ha, 0 to 100 scale, read-out: Plant response rating, Kochia
How it was run: as §2

[9] = test system: giant foxtail (Setaria faberii); assay: Test A preemergence; type: in vivo; conditions: Setaria faberi, pre-emergence, 240 h, 1000 g ai/ha, 0 to 100 scale, read-out: Plant response rating, Foxtail, Giant
How it was run: as §2

[10] = test system: galium (catchweed bedstraw, Galium aparine); assay: Test A postemergence; type: in vivo; conditions: Galium, post-emergence, 240 h, 1000 g ai/ha, 0 to 100 scale, read-out: Plant response rating, Galium
How it was run: as §2

[11] = test system: wheat (Triticum aestivum); assay: Test A postemergence; type: in vivo; conditions: Triticum aestivum, post-emergence, 240 h, 1000 g ai/ha, 0 to 100 scale, read-out: Plant response rating, Wheat
How it was run: as §2

[12] = test system: Italian ryegrass (Lolium multiflorum); assay: Test A postemergence; type: in vivo; conditions: Lolium multiflorum, post-emergence, 240 h, 1000 g ai/ha, 0 to 100 scale, read-out: Plant response rating, Ryegrass, Italian
How it was run: as §2

[13] = test system: pigweed (Amaranthus retroflexus); assay: Test A postemergence; type: in vivo; conditions: Amaranthus retroflexus, post-emergence, 240 h, 1000 g ai/ha, 0 to 100 scale, read-out: Plant response rating, Pigweed
How it was run: as §2

[14] = test system: barnyardgrass (Echinochloa crus-galli); assay: Test A postemergence; type: in vivo; conditions: Echinochloa crus-galli, post-emergence, 240 h, 1000 g ai/ha, 0 to 100 scale, 0 no effect, 100 complete control, read-out: Plant response rating, Barnyardgrass
How it was run: as §2

[15] = test system: blackgrass (Alopecurus myosuroides); assay: Test A postemergence; type: in vivo; conditions: Alopecurus myosuroides, post-emergence, 240 h, 1000 g ai/ha, 0 to 100 scale, read-out: Plant response rating, Blackgrass
How it was run: as §2

[16] = test system: ragweed (common ragweed, Ambrosia elatior); assay: Test A postemergence; type: in vivo; conditions: Ambrosia artemisiifolia, post-emergence, 240 h, 1000 g ai/ha, 0 to 100 scale, read-out: Plant response rating, Ragweed
How it was run: as §2

corn (Zea mays) = assay: Test A postemergence; type: in vivo; conditions: Zea mays, post-emergence, 240 h, 1000 g ai/ha, 0 to 100 scale
How it was run: as §2

kochia (Kochia scoparia) [17] = assay: Test A postemergence; type: in vivo; conditions: Bassia scoparia, post-emergence, 240 h, 1000 g ai/ha, 0 to 100 scale, read-out: Plant response rating, Kochia
How it was run: as §2

[18] = test system: giant foxtail (Setaria faberii); assay: Test A postemergence; type: in vivo; conditions: Setaria faberi, post-emergence, 240 h, 1000 g ai/ha, 0 to 100 scale, read-out: Plant response rating, Foxtail, Giant
How it was run: as §2

[19] = test system: pigweed (Amaranthus retroflexus); assay: Test C postemergence; type: in vivo; conditions: Amaranthus retroflexus, post-emergence, 336 h, Postemergence, scale 0 to 100, read-out: Plant response rating, Pigweed
[20] = test system: waterhemp (common waterhemp, Amaranthus rudis); assay: Test C postemergence; type: in vivo; conditions: Amaranthus tuberculatus, post-emergence, Postemergence, scale 0 to 100, read-out: Plant response rating, Waterhemp

melting point: 113 to 116 °C
SMILES: Fc1cnc(Oc2c(Br)cccc2Oc2ncc(Cl)cn2)nc1 [Compound 22]
pest or weed control at 250 g/ha [1]: 98% | pest or weed control at 250 g/ha [2]: 100% | pest or weed control at 250 g/ha [3]: 45% | plant injury at 250 g/ha (rice (Oryza sativa)): 45% | pest or weed control at 1000 g/ha [4]: 90% | pest or weed control at 1000 g/ha [5]: 100% | pest or weed control at 1000 g/ha [6]: 100% | pest or weed control at 1000 g/ha [7]: 90% | pest or weed control at 1000 g/ha (kochia (Kochia scoparia) [8]): 100% | pest or weed control at 1000 g/ha [9]: 100% | pest or weed control at 1000 g/ha [10]: 90% | plant injury at 1000 g/ha [11]: 70% | pest or weed control at 1000 g/ha [12]: 90% | pest or weed control at 1000 g/ha [13]: 100% | pest or weed control at 1000 g/ha [14]: 90% | pest or weed control at 1000 g/ha [15]: 70% | pest or weed control at 1000 g/ha [16]: 90% | Corn plant response rating (crop injury, 0 = no effect, 100 = complete kill) at 1000 g/ha (corn (Zea mays)): 70% | pest or weed control at 1000 g/ha (kochia (Kochia scoparia) [17]): 100% | pest or weed control at 1000 g/ha [18]: 90% | pest or weed control at 31 g/ha ([19]; 31 g ai/ha): 75% | pest or weed control at 62 g/ha ([19]; 62 g ai/ha): 85% | pest or weed control at 125 g/ha ([19]; 125 g ai/ha): 90% | pest or weed control at 250 g/ha ([19]; 250 g ai/ha): 100% | pest or weed control at 31 g/ha ([20]; 31 g ai/ha): 70% | pest or weed control at 62 g/ha ([20]; 62 g ai/ha): 85% | pest or weed control at 125 g/ha ([20]; 125 g ai/ha): 95% | pest or weed control at 250 g/ha ([20]; 250 g ai/ha): 95%
